This is an account of results in ChEMBL document CHEMBL1138695, “Synthesis of stavudine amino acid ester prodrugs with broad-spectrum chemotherapeutic properties for the effective treatment of HIV/AIDS” (Bioorg Med Chem Lett, 2004).

Each structure is given as a SMILES string. In brackets after ≈: the same amount, converted by molar mass.

For series [1], the system named is CCRF-CEM. Briefly: Effective concentration of compound achieving 50% protection in CEM cell lines against the cytopathic effect of HIV-1. The class given is functional, cell-based. The conditions noted are these: Homo sapiens. A general note: Cytopathic effects are the visible damage that an infection or toxin causes in cultured cells.
Series [2] relates to CCRF-CEM. Put plainly: Cytotoxic concentration of compound required to reduce the viability of mock infected CEM cells by 50%. The class given is functional. The conditions noted are these: Homo sapiens.
The nature of series [3]: Selectivity index expressed as the ratio of CC50 to EC50. Type of series: functional.
The nature of series [4]: In vitro hydrolysis in human plasma. The class given is ADME, cell-free.
For series [5], the system named is Priestia megaterium. Put plainly: Antibacterial activity against Bacillus megatherium. The class given is functional.
Series [6] concerns Shigella sonnei. Put plainly: Antibacterial activity against Shigella sonnei. The class given is functional.
The test system of series [7] is Salmonella enteritidis. Put plainly: Antibacterial activity against Salmonella enteritidis. Conditions: Salmonella enterica. Type of series: functional, Salmonella enterica subsp. enterica serovar Enteritidis.
In series [8] the test system is Vibrio fluvialis. Put plainly: Antibacterial activity against Vibrio fluvialis. Type of series: functional.
Series [9] has as its system Vibrio mimicus. Briefly: Antibacterial activity against Vibrio mimicus. The class given is functional.
Series [10] relates to Escherichia coli. Put plainly: Antibacterial activity against Escherichia coli NCTC 10418. The class given is functional.
Series [11] deals with Pseudomonas aeruginosa. Briefly: Antibacterial activity against Pseudomonas aeruginosa. Type of series: functional.
The test system of series [12] is Edwardsiella tarda. Put plainly: Antibacterial activity against Edwardsiella tarda. The class given is functional.
Series [13] deals with Vibrio parahaemolyticus. Briefly: Antibacterial activity against Vibrio parahaemolyticus. The class given is functional.
Series [14] relates to Klebsiella pneumoniae. Put plainly: Antibacterial activity against Klebsiella ozaenae. Conditions: subsp. ozaenae. The class given is functional.
The subject of series [15] is Plesiomonas shigelloides. Put plainly: Antibacterial activity against Plesiomonas shigelloides. The class given is functional.
In series [16] the test system is Morganella morganii. Briefly: Antibacterial activity against Morganella morganii. The class given is functional.
The test system of series [17] is Citrobacter freundii. Put plainly: Antibacterial activity against Citrobacter ferundii. Type of series: functional.
Series [18] concerns Vibrio cholerae. Put plainly: Antibacterial activity against Vibrio cholerae 01. The class given is functional.
Series [19] deals with Salmonella typhimurium. Briefly: Antibacterial activity against Salmonella Typhimurium. The class given is functional, Salmonella enterica subsp. enterica serovar Typhimurium. Conditions: Salmonella enterica.
The test system of series [20] is Proteus vulgaris. Put plainly: Antibacterial activity against Proteus vulgaris. Type of series: functional.
Series [21] deals with Proteus mirabilis. Briefly: Antibacterial activity against Proteus mirabilis. The class given is functional.
Series [22] relates to Vibrio cholerae. Briefly: Antibacterial activity against Vibrio cholerae 0139. Type of series: functional.
Series [23] concerns Mycobacterium tuberculosis. Put plainly: Antimycobacterial activity against Mycobacterium tuberculosis strain H37Rv. The class given is functional. Further details: concentration or dose not given beside the values.
For series [24], the system named is Klebsiella pneumoniae. Put plainly: Antibacterial activity against Klebsiella pneumoniae. The class given is functional.
In series [25] the test system is Shigella boydii. Briefly: Antibacterial activity against Shigella boydii. Type of series: functional.
Series [26] has as its system Enterobacter. Briefly: Antibacterial activity against Enterobacter. Type of series: functional.
For series [27], the system named is Staphylococcus aureus. Briefly: Antibacterial activity against Staphylococcus aureus. The class given is functional.
In series [28] the test system is Salmonella typhi. Briefly: Antibacterial activity against […] Salmonella typhi. Type of series: functional, Salmonella enterica subsp. enterica serovar Typhi. Conditions: Salmonella enterica.
In series [29] the test system is Salmonella paratyphi. Put plainly: Antibacterial activity against Salmonella paratyphi A. The class given is functional, Salmonella enterica subsp. enterica serovar Paratyphi A. Conditions: Salmonella enterica.

As to `Cc1cn(C2C=CC(COC(=O)CN3CCNCC3)O2)c(=O)[nH]c1=O` (stereo not drawn), the EC50 in series [1] was below 0.0636 µM. In [2], this compound came in with a CC50 above 1000 µM. Besides, the Selectivity index in [3] was above 15700. The half-life in series [4] is 0.333 h.

In series [1], `Cc1cn(C2C=CC(COC(=O)CN3CCN(c4cc5c(cc4F)c(=O)c(C(=O)O)cn5C4CC4)CC3)O2)c(=O)[nH]c1=O` (stereo not drawn) returned a 50% effective concentration (EC50) of 61.8 µM. In addition, the MIC worked out at 0.3 µg/mL (≈ 0.504 µM) in [5]; 4.88 µg/mL (≈ 8.19 µM) in [6]; 0.61 µg/mL (≈ 1.02 µM) in [7]; 0.61 µg/mL (≈ 1.02 µM) in series [8]; 0.3 µg/mL (≈ 0.504 µM) in [9]; 0.3 µg/mL (≈ 0.504 µM) in series [10]. The MIC in series [11] was 1.22 µg/mL (≈ 2.05 µM); in [12], 4.88 µg/mL (≈ 8.19 µM); in [13], 0.3 µg/mL (≈ 0.504 µM); in [14], 1.22 µg/mL (≈ 2.05 µM); in series [15], 0.61 µg/mL (≈ 1.02 µM); in [16] it was 0.61 µg/mL (≈ 1.02 µM). The MIC was determined as 0.61 µg/mL (≈ 1.02 µM) in series [17]; 0.3 µg/mL (≈ 0.504 µM) in series [18]; 0.3 µg/mL (≈ 0.504 µM) in [19]; 4.88 µg/mL (≈ 8.19 µM) in [20]; 0.3 µg/mL (≈ 0.504 µM) in series [21]; 0.61 µg/mL (≈ 1.02 µM) in [22]. Also, the MIC in series [24] was determined as 1.22 µg/mL (≈ 2.05 µM); in [25] it was 0.61 µg/mL (≈ 1.02 µM); in series [26], 0.3 µg/mL (≈ 0.504 µM); in [27], 4.88 µg/mL (≈ 8.19 µM). It took 695 µM to reach half-maximal cytotoxicity in series [2] (CC50). For the same compound, in [3], the Selectivity index turned out to be 11.2. Further, the Inhibition in series [23] amounted to 100%. Further, in series [4], the half-life was determined as 4 h.

Turning to `Cc1cn(C2C=CC(COC(=O)CNNC(=O)c3ccncc3)O2)c(=O)[nH]c1=O` (stereo not drawn), in series [1], a half-maximal effect (EC50) was put at 0.402 µM. The MIC was 2.44 µg/mL (≈ 6.08 µM) in series [5]; 156 µg/mL (≈ 389 µM) in [6]; 4.88 µg/mL (≈ 12.2 µM) in series [7]; 1250 µg/mL (≈ 3110 µM) in series [8]; 4.88 µg/mL (≈ 12.2 µM) in [9]; 156 µg/mL (≈ 389 µM) in series [10]. The MIC in series [11] was found to be 1250 µg/mL (≈ 3110 µM); in series [12], 156 µg/mL (≈ 389 µM); in series [13], 1250 µg/mL (≈ 3110 µM); in [14] it was 9.76 µg/mL (≈ 24.3 µM); in [15], 312 µg/mL (≈ 779 µM); in [16], 156 µg/mL (≈ 389 µM). Further, the minimum inhibitory concentration (MIC) amounted to 1250 µg/mL (≈ 3110 µM) in series [17]; 1250 µg/mL (≈ 3110 µM) in series [18]; 1250 µg/mL (≈ 3110 µM) in [19]; 312 µg/mL (≈ 779 µM) in [20]; 2.44 µg/mL (≈ 6.08 µM) in [21]; 156 µg/mL (≈ 389 µM) in [22]. Further, the MIC was 1250 µg/mL (≈ 3110 µM) in series [24]; 4.88 µg/mL (≈ 12.2 µM) in series [25]; 312 µg/mL (≈ 779 µM) in series [26]; 156 µg/mL (≈ 389 µM) in series [27]; 156 µg/mL (≈ 389 µM) in series [28]; 9.77 µg/mL (≈ 24.3 µM) in series [29]. For the same compound, the CC50 in [2] was above 200 µM. Moreover, the Selectivity index in [3] was above 497. The Inhibition in series [23] is on record as 90%. Besides, the half-life in series [4] is 1 h.

For the compound `CCn1cc(C(=O)O)c(=O)c2cc(F)c(N3CCNCC3)cc21` [NORFLOXACIN], the minimal inhibitory concentration (MIC) was determined as 0.0763 µg/mL (≈ 0.239 µM) in series [5]; 0.0381 µg/mL (≈ 0.119 µM) in series [6]; 0.0381 µg/mL (≈ 0.119 µM) in series [7]; 0.0763 µg/mL (≈ 0.239 µM) in series [8]; 0.153 µg/mL (≈ 0.478 µM) in [9]; 0.0381 µg/mL (≈ 0.119 µM) in series [10]. Further, the minimum inhibitory concentration (MIC) in series [11] amounted to 0.0763 µg/mL (≈ 0.239 µM); in series [12] it was 0.0381 µg/mL (≈ 0.119 µM); in series [13], 0.0763 µg/mL (≈ 0.239 µM); in series [14], 0.0381 µg/mL (≈ 0.119 µM); in [15], 0.0763 µg/mL (≈ 0.239 µM); in [16], 0.0763 µg/mL (≈ 0.239 µM). In addition, the MIC was 0.0381 µg/mL (≈ 0.119 µM) in [17]; 0.0763 µg/mL (≈ 0.239 µM) in series [18]; 0.0763 µg/mL (≈ 0.239 µM) in series [19]; 0.0381 µg/mL (≈ 0.119 µM) in [20]; 0.0763 µg/mL (≈ 0.239 µM) in series [21]; 0.0763 µg/mL (≈ 0.239 µM) in series [22]. Moreover, the minimal inhibitory concentration (MIC) in series [24] turned out to be 0.0381 µg/mL (≈ 0.119 µM); in series [25], 0.0381 µg/mL (≈ 0.119 µM); in series [26], 0.0763 µg/mL (≈ 0.239 µM); in series [27] it was 0.153 µg/mL (≈ 0.478 µM); in series [28], 0.0763 µg/mL (≈ 0.239 µM); in series [29], 0.0381 µg/mL (≈ 0.119 µM).

In the case of `O=C(O)c1cn(C2CC2)c2cc(N3CCNCC3)c(F)cc2c1=O` [CIPROFLOXACIN], the MIC in series [5] came out at 0.0095 µg/mL (≈ 0.0287 µM); in series [6] it was 0.0095 µg/mL (≈ 0.0287 µM); in series [7], 0.0095 µg/mL (≈ 0.0287 µM); in series [8], 0.0095 µg/mL (≈ 0.0287 µM); in [9], 0.0095 µg/mL (≈ 0.0287 µM); in series [10], 0.019 µg/mL (≈ 0.0573 µM). The MIC in series [11] was 0.0381 µg/mL (≈ 0.115 µM); in series [12] it was 0.0095 µg/mL (≈ 0.0287 µM); in series [13], 0.0095 µg/mL (≈ 0.0287 µM); in [14], 0.0381 µg/mL (≈ 0.115 µM); in [15] it was 0.019 µg/mL (≈ 0.0573 µM); in [16], 0.0095 µg/mL (≈ 0.0287 µM). Also, the MIC in series [17] is 0.0095 µg/mL (≈ 0.0287 µM); in series [18], 0.0095 µg/mL (≈ 0.0287 µM); in series [19], 0.0095 µg/mL (≈ 0.0287 µM); in series [20], 0.019 µg/mL (≈ 0.0573 µM); in [21], 0.0095 µg/mL (≈ 0.0287 µM); in series [22], 0.0095 µg/mL (≈ 0.0287 µM). For the same compound, the minimum inhibitory concentration (MIC) came out at 0.0095 µg/mL (≈ 0.0287 µM) in series [24]; 0.0095 µg/mL (≈ 0.0287 µM) in [25]; 0.019 µg/mL (≈ 0.0573 µM) in series [26]; 0.0095 µg/mL (≈ 0.0287 µM) in series [27]; 0.019 µg/mL (≈ 0.0573 µM) in series [28]; 0.019 µg/mL (≈ 0.0573 µM) in series [29].

Broadly, the EC50 is the concentration that produces a half-maximal response. For orientation: CC50 means the concentration giving 50% cytotoxicity. What is called half-life is how long it takes for the measured level to halve. What is called MIC is the lowest concentration found to suppress growth. For orientation: Inhibition means the drop in the measured response relative to a control, in per cent.
